# Reference: patent US20230043863A1, “HETEROAROMATIC DERIVATIVES FOR USE AS REGULATOR, PREPARATION METHOD THEREFOR AND USE THEREOF” (JIANGSU HANSOH PHARMACEUTICAL GROUP CO., LTD., priority 2018, published 2023)
# Key:
# JAK2 = JAK2 (Homo sapiens, UniProt O60674); assay: JAK kinase activity inhibition, TR-FRET (JAK2); format: biochemical; conditions: TR-FRET kinase assay
# Protocol: (§1) Experimental objective: The objective of this test is to test the inhibitory effect of the compound on JAK kinase activity.
# (§2) Experimental method: the fluorescence resonance energy transfer (TR-FRET) method was used to test the inhibitory effect of the compound on JAK kinase activity, and the half inhibitory concentration IC50 of the compound on JAK kinase activity was obtained.
# (§3) Kinase reaction was carried out in a white 384-well plate (PerkinElmer). 1-5 μL of different concentrations of the compound diluted with DMSO and ddH2O was added into each well, and 1-5 μL of the corresponding solvent was added to the positive control wells, followed by addition of 0.1-20 nM JAK kinase solution diluted with 1-5 μL of kinase buffer (HEPES 50-250 mM, MgCl2 5-20 mM, etc.) was added to each well. 1-5 μL of kinase buffer was added to the negative control well. 1-5 μL of substrate mixture containing peptide substrate and ATP was added. The plate was incubated at room temperature for 0.5-5 hours. […], EDTA and detection solution containing labeled antibody was added, and then the plate was incubated at room temperature for another 1-24 hours. The fluorescence signal value at about 620 nm and 665 nm of each well was measured by BioTek Synergy H1 plate reader, and the inhibition rate was calculated by the fluorescence signal value. According to the inhibition rate of different concentrations, the IC50 of the compound was obtained by curve fitting.
# (§4) The percentage inhibition data of the wells treated with the compound was calculated with the positive control wells (DMSO control wells) and negative control wells (no kinase added) on the plate {% inhibition rate=100-[(test compound value-negative control value)]/(Positive control value-negative control value)×100}. IC50 value was calculated by using GraphPad prism to fit the data of different concentrations and corresponding percentage inhibition rates to a 4-parameter non-linear logic formula.
# TYK2 = TYK2 (Homo sapiens, UniProt P29597); assay: JAK kinase activity inhibition, TR-FRET (TYK2); format: biochemical; conditions: TR-FRET kinase assay
# Summary of the method: (§5)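 Enzymatic inhibition measured by time-resolved FRET using 0.1-20 nM kinase with peptide substrate and ATP, reacted 0.5-5 hours at room temperature. Percent inhibition was normalized to DMSO (no inhibitor) and kinase-free wells, and concentration-response data were fitted with a 4-parameter logistic model.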
# JAK3 = molecular target: T1, JAK3 (Homo sapiens, UniProt P52333); assay: JAK kinase activity inhibition, TR-FRET (JAK3); format: biochemical; conditions: TR-FRET kinase assay
# T1 sequence (P52333 1-1124): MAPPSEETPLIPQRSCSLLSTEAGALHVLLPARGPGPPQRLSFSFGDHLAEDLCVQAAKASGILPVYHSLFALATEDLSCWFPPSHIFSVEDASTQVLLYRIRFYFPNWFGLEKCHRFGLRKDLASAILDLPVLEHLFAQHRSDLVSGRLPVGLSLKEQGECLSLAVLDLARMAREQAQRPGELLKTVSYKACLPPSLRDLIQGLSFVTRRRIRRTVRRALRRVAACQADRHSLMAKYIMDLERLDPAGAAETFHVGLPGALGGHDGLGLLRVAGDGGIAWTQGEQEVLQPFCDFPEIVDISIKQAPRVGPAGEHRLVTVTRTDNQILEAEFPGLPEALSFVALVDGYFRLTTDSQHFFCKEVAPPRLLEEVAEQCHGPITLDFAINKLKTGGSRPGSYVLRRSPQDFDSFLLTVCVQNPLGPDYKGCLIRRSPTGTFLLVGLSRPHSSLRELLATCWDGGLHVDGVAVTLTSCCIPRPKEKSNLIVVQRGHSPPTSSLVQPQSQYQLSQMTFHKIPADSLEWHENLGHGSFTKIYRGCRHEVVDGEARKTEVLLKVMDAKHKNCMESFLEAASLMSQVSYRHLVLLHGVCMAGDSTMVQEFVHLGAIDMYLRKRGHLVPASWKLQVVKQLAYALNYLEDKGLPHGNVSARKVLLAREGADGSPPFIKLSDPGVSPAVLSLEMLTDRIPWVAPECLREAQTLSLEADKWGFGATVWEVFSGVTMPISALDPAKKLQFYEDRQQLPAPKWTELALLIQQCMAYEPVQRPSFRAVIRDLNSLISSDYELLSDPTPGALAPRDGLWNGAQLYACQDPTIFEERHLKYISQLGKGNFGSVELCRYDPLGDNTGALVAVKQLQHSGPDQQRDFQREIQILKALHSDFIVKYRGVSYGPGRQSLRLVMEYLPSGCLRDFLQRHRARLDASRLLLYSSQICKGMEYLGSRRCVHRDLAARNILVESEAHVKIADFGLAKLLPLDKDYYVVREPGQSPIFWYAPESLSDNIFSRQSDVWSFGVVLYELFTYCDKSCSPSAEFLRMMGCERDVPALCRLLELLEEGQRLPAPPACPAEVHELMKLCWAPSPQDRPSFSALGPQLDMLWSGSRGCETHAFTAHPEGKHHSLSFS
# Protocol: as §1, §2, §3, §4
# JAK1 = JAK1 (Homo sapiens, UniProt P23458); assay: JAK kinase activity inhibition, TR-FRET (JAK1); format: biochemical; conditions: TR-FRET kinase assay
# Summary of the method: as §5
# [1] = test system: JAK-STAT signal pathway of U266 cells; assay: Inhibition of cellular JAK-STAT signal pathway (STAT3 phosphorylation) in U266 cells; format: cell-based, human; conditions: Homo sapiens, U-266, INF-a 1000 U/mL stimulation
# Summary of the method: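 U266 cells (100-300 K/well) preincubated 2 h at room temperature with serially diluted compound, then stimulated 15 min with IFN-α at 1000 U/mL final. After lysis, STAT3 phosphorylation read by LANCE Ultra TR-FRET (Eu antibody 0.5 nM, ULight antibody 5 nM, overnight) at 665 nm; IC50 from 4-parameter fit of inhibition versus DMSO and negative controls.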
# Sequence of JAK2 (O60674 whole entry): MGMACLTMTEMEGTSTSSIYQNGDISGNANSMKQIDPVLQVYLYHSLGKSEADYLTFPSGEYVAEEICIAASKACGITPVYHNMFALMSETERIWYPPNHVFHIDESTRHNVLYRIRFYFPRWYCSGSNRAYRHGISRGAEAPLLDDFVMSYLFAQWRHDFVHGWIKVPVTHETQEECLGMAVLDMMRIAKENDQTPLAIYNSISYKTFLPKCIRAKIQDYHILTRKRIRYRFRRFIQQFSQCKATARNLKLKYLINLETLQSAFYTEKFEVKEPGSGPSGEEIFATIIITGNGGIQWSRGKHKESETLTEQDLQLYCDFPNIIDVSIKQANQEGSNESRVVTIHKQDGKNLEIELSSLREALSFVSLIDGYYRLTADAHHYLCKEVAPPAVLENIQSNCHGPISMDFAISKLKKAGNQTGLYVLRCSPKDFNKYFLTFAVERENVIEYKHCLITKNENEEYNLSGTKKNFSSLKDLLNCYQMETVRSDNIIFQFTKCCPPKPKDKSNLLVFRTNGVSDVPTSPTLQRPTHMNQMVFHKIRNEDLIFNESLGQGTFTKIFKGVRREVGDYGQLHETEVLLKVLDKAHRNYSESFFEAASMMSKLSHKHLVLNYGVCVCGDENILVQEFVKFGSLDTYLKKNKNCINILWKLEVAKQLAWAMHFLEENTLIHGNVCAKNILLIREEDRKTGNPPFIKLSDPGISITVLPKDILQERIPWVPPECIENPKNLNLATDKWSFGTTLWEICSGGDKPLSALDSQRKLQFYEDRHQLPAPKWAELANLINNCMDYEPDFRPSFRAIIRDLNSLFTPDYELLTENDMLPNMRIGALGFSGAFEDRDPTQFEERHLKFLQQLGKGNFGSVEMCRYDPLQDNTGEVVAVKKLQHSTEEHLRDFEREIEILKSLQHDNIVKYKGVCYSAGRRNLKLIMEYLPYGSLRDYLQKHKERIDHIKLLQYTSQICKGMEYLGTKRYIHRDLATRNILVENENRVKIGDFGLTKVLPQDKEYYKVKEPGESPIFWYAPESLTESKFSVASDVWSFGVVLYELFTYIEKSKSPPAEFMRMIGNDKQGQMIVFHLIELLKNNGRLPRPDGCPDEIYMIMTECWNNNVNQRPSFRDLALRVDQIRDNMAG
# Sequence of JAK1 (P23458 whole entry): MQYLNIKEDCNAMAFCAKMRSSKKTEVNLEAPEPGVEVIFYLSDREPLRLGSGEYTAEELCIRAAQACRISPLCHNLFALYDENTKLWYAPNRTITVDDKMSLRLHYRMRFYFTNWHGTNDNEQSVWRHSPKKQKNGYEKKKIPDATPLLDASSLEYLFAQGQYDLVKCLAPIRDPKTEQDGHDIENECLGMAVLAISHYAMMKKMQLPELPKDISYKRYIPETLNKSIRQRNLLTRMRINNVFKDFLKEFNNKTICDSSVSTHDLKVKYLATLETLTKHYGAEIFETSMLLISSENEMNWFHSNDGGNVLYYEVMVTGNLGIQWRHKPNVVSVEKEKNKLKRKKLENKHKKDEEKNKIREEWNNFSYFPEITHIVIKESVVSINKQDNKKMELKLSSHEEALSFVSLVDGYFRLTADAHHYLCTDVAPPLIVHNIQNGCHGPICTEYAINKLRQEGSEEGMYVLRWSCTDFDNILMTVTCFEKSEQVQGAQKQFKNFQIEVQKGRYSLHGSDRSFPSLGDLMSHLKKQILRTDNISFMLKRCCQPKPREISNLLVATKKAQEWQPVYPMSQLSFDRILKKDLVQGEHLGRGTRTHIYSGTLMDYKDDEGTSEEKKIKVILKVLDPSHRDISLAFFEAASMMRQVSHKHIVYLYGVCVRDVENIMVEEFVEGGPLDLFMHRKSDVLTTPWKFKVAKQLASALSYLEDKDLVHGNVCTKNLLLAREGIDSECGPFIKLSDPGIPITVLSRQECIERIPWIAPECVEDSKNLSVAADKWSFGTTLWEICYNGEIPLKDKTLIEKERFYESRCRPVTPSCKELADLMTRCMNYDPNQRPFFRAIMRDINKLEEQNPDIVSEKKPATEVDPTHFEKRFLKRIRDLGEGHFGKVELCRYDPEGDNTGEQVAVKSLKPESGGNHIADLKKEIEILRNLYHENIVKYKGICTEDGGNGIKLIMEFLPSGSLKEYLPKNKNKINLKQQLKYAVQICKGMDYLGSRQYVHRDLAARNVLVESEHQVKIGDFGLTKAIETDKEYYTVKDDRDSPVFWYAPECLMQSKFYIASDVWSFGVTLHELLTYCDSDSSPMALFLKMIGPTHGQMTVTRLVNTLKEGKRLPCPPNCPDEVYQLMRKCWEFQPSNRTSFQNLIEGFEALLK
# Sequence of TYK2 (P29597 whole entry): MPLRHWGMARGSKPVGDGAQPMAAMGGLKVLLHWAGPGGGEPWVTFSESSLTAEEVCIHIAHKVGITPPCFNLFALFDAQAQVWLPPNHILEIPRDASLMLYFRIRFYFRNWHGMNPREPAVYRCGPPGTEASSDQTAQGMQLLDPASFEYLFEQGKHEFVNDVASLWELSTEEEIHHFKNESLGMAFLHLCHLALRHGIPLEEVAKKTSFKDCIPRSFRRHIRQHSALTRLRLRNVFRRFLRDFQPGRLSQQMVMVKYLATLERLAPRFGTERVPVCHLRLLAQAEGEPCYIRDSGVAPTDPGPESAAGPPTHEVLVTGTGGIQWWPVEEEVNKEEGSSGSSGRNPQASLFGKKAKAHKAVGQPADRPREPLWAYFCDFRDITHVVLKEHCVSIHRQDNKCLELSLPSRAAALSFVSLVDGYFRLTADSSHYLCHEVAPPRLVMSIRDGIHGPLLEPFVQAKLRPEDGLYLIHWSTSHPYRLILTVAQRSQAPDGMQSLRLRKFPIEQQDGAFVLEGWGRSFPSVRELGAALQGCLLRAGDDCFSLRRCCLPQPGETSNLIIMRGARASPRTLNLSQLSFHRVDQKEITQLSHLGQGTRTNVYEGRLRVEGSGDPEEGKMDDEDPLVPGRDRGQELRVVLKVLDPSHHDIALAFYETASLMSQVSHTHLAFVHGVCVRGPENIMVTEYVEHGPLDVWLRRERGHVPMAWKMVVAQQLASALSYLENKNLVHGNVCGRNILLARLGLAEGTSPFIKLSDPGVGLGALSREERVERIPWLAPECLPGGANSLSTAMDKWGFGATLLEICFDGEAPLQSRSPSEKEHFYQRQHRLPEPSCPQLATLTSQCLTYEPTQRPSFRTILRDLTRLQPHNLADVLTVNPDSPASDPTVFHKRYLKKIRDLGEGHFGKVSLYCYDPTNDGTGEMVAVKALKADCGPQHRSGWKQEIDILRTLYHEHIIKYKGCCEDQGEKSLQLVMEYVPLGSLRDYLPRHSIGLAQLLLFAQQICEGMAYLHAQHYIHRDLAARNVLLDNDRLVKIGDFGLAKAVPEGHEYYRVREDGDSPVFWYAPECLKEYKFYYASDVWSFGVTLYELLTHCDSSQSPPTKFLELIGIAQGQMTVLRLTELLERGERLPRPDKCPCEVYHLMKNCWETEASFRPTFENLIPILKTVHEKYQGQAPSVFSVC
Structure (SMILES),IC50 (JAK2) [nM],IC50 (TYK2) [nM],IC50 (JAK3) [nM],IC50 (JAK1) [nM],IC50 [1] [nM]
N#CCCN1[C@@H]2CC[C@H]1C[C@H](Nc1nc(Nc3ncc(CO)s3)cc3ncccc13)C2 [Embodiment 2],0.53,2.3,8.95,0.11,–
"Cc1cc(Nc2nc(N[C@@H]3C[C@H]4CC[C@@H](C3)N4CCC#N)nc3[nH]ccc23)n[nH]1 [Embodiment 3, 3-((3-exo)-3-((4-((5-methyl-1H-pyrazol-3-yl)amino)-7H-pyrrolo[2,3-d]pyrimidin-2-yl)amino)-8-azabicyclo[3.2.1]oct-8-yl)propionitrile]",0.29,0.17,0.81,0.11,4.5
"Cc1cc(Nc2nc(N[C@@H]3C[C@H]4CC[C@@H](C3)N4CCC#N)nc3ccccc23)n[nH]1 [Embodiment 4, 3-((3-exo)-3-((4-((5-methyl-1H-pyrazol-3-yl)amino)quinazolin-2-yl)amino)-8-azabicyclo[3.2.1]oct-8-yl)propionitrile]",0.55,0.68,5.72,0.86,2.6
"Cc1cc(Nc2cc3ncccc3c(N[C@@H]3C[C@@H]4CN(CCC#N)C[C@@H]4C3)n2)n[nH]1 [Embodiment 5, 3-(cis-5-((7-((5-methyl-1H-pyrazol-3-yl)amino)-1,6-diazanaphthalen-5-yl)amino)hexahydrocyclopentadieno[c]pyrrole-2(1H)-yl)propionitrile]",1.39,4.44,26.5,0.85,4.12
"N#CCCN1[C@@H]2CC[C@H]1C[C@H](Nc1nc(Nc3cnccn3)cc3ncccc13)C2 [Embodiment 29, 3-((3-exo)-3-((7-(pyrazin-2-ylamino)-1,6-diazanaphthalen-5-yl)amino)-8-azabicyclo[3.2.1]oct-8-yl)propionitrile]",> 100,47.3,> 100,44.2,–
"Cc1cc(Nc2nc(N[C@@H]3C[C@H]4CC[C@@H](C3)N4CCC#N)nc3cc[nH]c23)n[nH]1 [Embodiment 40, 3-((3-exo)-3-((4-((5-methyl-1H-pyrazol-3-yl)amino)-5H-pyrrolo[3,2-d]pyrimidin-2-yl)amino)-8-azabicyclo[3.2.1]oct-8-yl)pronionitrile]",0.77,1.01,8.78,0.83,17.4
"Cc1cc(Nc2cc3ncccc3c(N3CC4CCC(C3)N4CCC#N)n2)n[nH]1 [Embodiment 109, 3-(3-(7-((5-methyl-1H-pyrazol-3-yl)amino)-1,6-diazanaphthalen-5-yl)-3,8-diazabicyclo[3.2.1]oct-8-yl)propionitrile]",6.27,33.9,25.9,7.85,–
"CN(c1nc(Nc2cc(CO)[nH]n2)c2ccsc2n1)[C@@H]1C[C@H]2CCC[C@@H](C1)N2S(=O)(=O)N1CC(C#N)C1 [Embodiment 132, 1-(((3-exo)-3-((4-((5-(hydroxymethyl)-1H-pyrazol-3-yl)amino)thieno[2,3-d]pyrimidin-2-yl)(methyl)amino)-9-azabicyclo[3.3.1]non-9-yl)sulfonyl)azetindin-3-formonitrile]",0.77,0.42,3.43,0.1,23.8
"Cc1cc(Nc2nc(N[C@@H]3C[C@H]4CC[C@@H](C3)N4CCC#N)nc3cnccc23)n[nH]1 [Embodiment 173, 3-((3-exo)-3-((4-((5-methyl-1H-pyrazol-3-yl)amino)pyrido[3,4-d]pyrimidin-2-yl)amino)-8-azabicyclo[3.2.1]oct-8-yl)propionitrile]",1.15,0.84,26.3,1.07,–
"Cc1cc(Nc2nc(N[C@@H]3C[C@H]4CC[C@@H](C3)N4CCC#N)nc3cc(-c4cnn(C)c4)ccc23)n[nH]1 [Embodiment 186, 3-((3-exo)-3-((4-((5-methyl-1H-pyrazol-3-yl)amino)-7-(1-methyl-1H-pyrazol-4-yl)quinazolin-2-yl)amino)-8-azabicyclo[3.2.1]oct-8-yl)propionitrile]",0.73,0.2,14.7,0.12,–
Cc1cc(Nc2nc(N[C@@H]3C[C@H]4CCC[C@@H](C3)N4S(=O)(=O)N3CC(C#N)C3)nc3ccccc23)n[nH]1 [Embodiment 217],1.61,0.1,1.92,0.04,36.7
"COc1ccc2c(Nc3cc(C)[nH]n3)nc(N(C)[C@@H]3C[C@H]4CC[C@@H](C3)N4S(=O)(=O)N3CC(C#N)C3)nc2c1 [Embodiment 218, 1-(((3-exo)-3-((7-methoxyl-4-((5-methyl-1H-pyrazol-3-yl)amino)quinazolin-2-yl)(methyl)amino)-8-azabicyclo[3.2.1]oct-8-yl)sulfonyl)azetindin-3-formonitrile]",1.05,0.4,19.6,0.27,61.5
"COc1ccc2c(Nc3cc(C)[nH]n3)nc(N[C@@H]3C[C@H]4CCC[C@@H](C3)N4S(=O)(=O)N3CC(C#N)C3)nc2c1 [Embodiment 219, 1-(((3-exo)-3-((7-methoxyl-4-((5-methyl-1H-pyrazol-3-yl)amino)quinazolin-2-yl)amino)-9-azabicyclo[3.3.1]non-9-yl)sulfonyl)azetindin-3-formonitrile]",0.76,0.13,2.61,0.09,117
"Cc1cc(Nc2nc(N(C)[C@@H]3C[C@H]4CCC[C@@H](C3)N4S(=O)(=O)N3CC(C#N)C3)nc3sccc23)n[nH]1 [Embodiment 239, 1-(((3-exo)-3-(methyl(4-((5-methyl-1H-pyrazol-3-yl)amino)thieno[2,3-d]pyrimidin-2-yl)amino)-9-azabicyclo[3.3.1]non-9-yl)sulfonyl)azacyclobutane-3-nitrile]",1.25,0.22,3.11,0.13,39
"Cc1cc(Nc2nc(N(C)[C@@H]3C[C@H]4CC[C@@H](C3)N4S(=O)(=O)N3CC(C#N)C3)nc3sccc23)n[nH]1 [Embodiment 241, 1-(((3-exo)-3-(methyl(4-((5-methyl-1H-pyrazol-3-yl)amino)thieno[2,3-d]pyrimidin-2-yl)amino)-8-azabicyclo[3.2.1]oct-8-yl)sulfonyl)azetindin-3-formonitrile]",1.39,0.22,7.35,0.15,115
